Assay: Log P by HPLC on reversed phase columns (EEC directive 79/831 Annex V.A8)
Type: physicochemical
Method: In the above tables, measurement of Log P values was performed according to EEC directive 79/831 Annex V.A8 by HPLC (High Performance Liquid Chromatography) on reversed phase columns with the following methods: • ^[a] Log P value is determined by measurement of LC-UV, in an acidic range, with 0.1% formic acid in water and acetonitrile as eluent (linear gradient from 10% acetonitrile to 95% acetonitrile). • ^[b] Log P value is determined by measurement of LC-UV, in a neutral range, with 0.001 molar ammonium acetate solution in water and acetonitrile as eluent (linear gradient from 10% acetonitrile to 95% acetonitrile). • ^[c] Log P value is determined by measurement of LC-UV, in an acidic range, with 0.1% phosphoric acid and acetonitrile as eluent (linear gradient from 10% acetonitrile to 95% acetonitrile). If more than one Log P value is available within the same method, all the values are given and separated by “+”. Calibration was done with straight-chain alkan2-ones (with 3 to 16 carbon atoms) with known Log P values (measurement of Log P values using retention times with linear interpolation between successive alkanones). Lambda-max-values were determined using UV-spectra from 200 nm to 400 nm and the peak values of the chromatographic signals.

[1] = method [a], compounds of formula (I), Table 1.1
[2] = method marker [a] given with each value, Table 1.1, compounds of formula (I)

Row | SMILES | LogP [1] | other results
1 | C=CC1CC1(NC(=O)c1sc(Br)c(Br)c1F)C(=O)OC (mixture of isomers) [1.0008] | 3.37^[a] | 
2 | CCOC(=O)C(NC(=O)c1cc(C)c(Cl)s1)C(C)C (racemic) [1.0002] | 3.48^[a] | 
3 | CCOC(=O)C(NC(=O)c1cc(F)c(Br)s1)C(C)C (racemic) [1.0003] | 3.46^[a] | 
4 | COC(=O)C(CC(F)F)NC(=O)c1cc(F)c(Br)s1 (racemic) [1.0004] | 2.68^[a] | 
5 | CSCCC(NC(=O)c1cc(Br)c(Cl)s1)C(=O)O (racemic) [1.0005] | 2.58^[a] | 
6 | COC(=O)C1(NC(=O)c2sc(Br)c(Br)c2F)CCOC1 (racemic) [1.0009] | 2.76^[a] | 
7 | CCOC(=O)C(CO)NC(=O)c1sc(Br)c(Br)c1F (racemic) [1.0012] | 2.51^[a] | 
8 | CCSC(=O)C(CC(C)C)NC(=O)c1sc(Br)c(Br)c1F (racemic) [1.0013] | 5.05^[a] | 
9 | CCSC(=O)C(NC(=O)c1sc(Br)c(Br)c1F)C(C)C (racemic) [1.0014] | 4.87^[a] | 
10 | CCOC(=O)C(CO)NC(=O)c1sc(Cl)c(Br)c1C (racemic) [1.0019] | 2.54^[a] | 
11 | CCSC(=O)C(CC(C)C)NC(=O)c1sc(Cl)c(Br)c1C (racemic) [1.0020] | 5.03^[a] | 
12 | CCSC(=O)C(NC(=O)c1sc(Cl)c(Br)c1C)C(C)C (racemic) [1.0021] | 4.74^[a] | 
13 | CCOC(=O)C(NC(=O)c1sc(C#N)c(Br)c1C)C(C)C (racemic) [1.0027] | 3.52^[a] | 
14 | CCOC(=O)C(Cc1ccccc1)NC(=O)c1sc(C#N)c(Br)c1C (racemic) [1.0028] | 3.74^[a] | 
15 | CCOC(=O)C(Cc1ccccc1)NC(=O)c1cc(Br)c(Cl)s1 (racemic) [1.0029] | 4.06^[a] | 
16 | CCOC(=O)C(Cc1ccccc1)NC(=O)c1cc(F)c(Br)s1 (racemic) [1.0030] | 3.69^[a] | 
17 | CCOC(=O)C(Cc1ccccc1)NC(=O)c1cc(C)c(Cl)s1 (racemic) [1.0031] | 3.73^[a] | 
18 | CC(C)(C)OC(=O)C(NC(=O)c1sc(Br)c(Br)c1F)C1CC1 (racemic) [1.0921] |  | LogP (method [a]): 4.89^[a]
19 | O=C(NC(C(=O)OC1CCC1)C1CC1)c1sc(Br)c(Br)c1F (racemic) [1.0922] |  | LogP (method [a]): 4.59^[a]
20 | CC(C)OC(=O)C(NC(=O)c1sc(Br)c(Br)c1F)C1CC1 (racemic) [1.0923] |  | LogP (method [a]): 4.40^[a]
21 | COC(=O)C(Cc1ccc(Cl)cc1)NC(=O)c1sc(Br)c(Br)c1Cl (racemic) [1.0940] |  | LogP [2]: 4.95^[a]
22 | COC(=O)C(C)(Cc1ccccc1)NC(=O)c1sc(Br)c(Br)c1Cl (racemic) [1.0941] |  | LogP [2]: 5.12^[a]

Row | SMILES | LogP [1] | other results
23 | COC(=O)C(NC(=O)c1sc(Br)c(Br)c1Cl)c1cccs1 (racemic) [1.0942] |  | LogP [2]: 4.25^[a]
24 | CCOC(=O)C(NC(=O)c1sc(Br)c(Br)c1Cl)C(F)(F)F (racemic) [1.0943] |  | LogP [2]: 4.50^[a]
25 | CCOC(=O)C(NC(=O)c1sc(Cl)c(Cl)c1Br)C(F)(F)F (racemic) [1.0946] |  | LogP [2]: 4.52^[a]
26 | COC(=O)C(NC(=O)c1sc(Cl)c(Cl)c1Br)c1cccs1 (racemic) [1.0947] |  | LogP [2]: 4.26^[a]
27 | COC(=O)C(C)(Cc1ccccc1)NC(=O)c1sc(Cl)c(Cl)c1Br (racemic) [1.0948] |  | LogP [2]: 5.15^[a]
28 | CCOC(=O)C(NC(=O)c1sc(Br)c(Br)c1F)C(F)(F)F (racemic) [1.0952] |  | LogP [2]: 4.08^[a]
29 | COC(=O)C(NC(=O)c1sc(Br)c(Br)c1F)c1cccs1 (racemic) [1.0953] |  | LogP [2]: 3.84^[a]
30 | CCOC(=O)CNC(=O)c1sc(C)c(Br)c1F [1.0001] | 2.69^[a] | 
31 | COC(=O)C1(NC(=O)c2sc(Br)c(Br)c2F)CCC(F)(F)CC1 [1.0010] | 3.74^[a] | 
32 | CCOC(=O)C1(NC(=O)c2sc(Br)c(Br)c2F)CCOCC1 [1.0011] | 3.13^[a] | 
33 | O=C(CNC(=O)c1sc(Br)c(Br)c1F)SCc1ccccc1 [1.0015] | 4.15^[a] | 
34 | O=C(CNC(=O)c1sc(Br)c(Br)c1F)Sc1ccccc1 [1.0016] | 3.89^[a] | 
35 | CCOC(=O)C1(NC(=O)c2sc(Cl)c(Br)c2C)CCOCC1 [1.0018] | 3.15^[a] | 
36 | Cc1c(C(=O)NCC(=O)SCc2ccccc2)sc(Cl)c1Br [1.0022] | 4.37^[a] | 
37 | CCOC(=O)CNC(=O)c1sc(C#N)c(Br)c1C [1.0024] | 2.46^[a] | 
38 | CCOC(=O)CCNC(=O)c1sc(C#N)c(Br)c1C [1.0025] | 2.52^[a] | 
39 | CCOC(=O)C1(NC(=O)c2sc(C#N)c(Br)c2C)CC1 [1.0026] | 2.58^[a] | 
40 | COC(=O)CC1(NC(=O)c2sc(Cl)c(Br)c2C)CC1 [1.0032] | 3.04^[a] | 
41 | CCOC(=O)C1(CNC(=O)c2sc(Cl)c(Br)c2C)CC1 [1.0033] | 3.79^[a] | 
42 | CCOC(=O)C1(NC(=O)c2sc(Cl)c(Br)c2C)COC1 [1.0034] | 2.88^[a] | 
43 | COC(=O)C1(NC(=O)c2sc(Cl)c(Br)c2C)CSC1 [1.0035] | 3.29^[a] | 
44 | CCOC(=O)C(CC(N)=O)NC(=O)c1sc(Cl)c(Br)c1C (stereo not shown) [1.0036] | 2.25^[a] | 

Row | SMILES | LogP [1] | other results
45 | CCOC(=O)C(CC(F)(F)F)NC(=O)c1sc(Cl)c(Br)c1C (stereo not shown) [1.0038] | 3.99^[a] | 
46 | CCOC(=O)C1(CNC(=O)c2sc(Br)c(Cl)c2C)CC1 [1.0040] | 3.75^[a] | 
47 | CCOC(=O)C1(NC(=O)c2sc(Br)c(Cl)c2C)COC1 [1.0041] | 2.84^[a] | 
48 | COC(=O)C1(NC(=O)c2sc(Br)c(Cl)c2C)CSC1 [1.0042] | 3.25^[a] | 
49 | CCOC(=O)C(CC(N)=O)NC(=O)c1sc(Br)c(Cl)c1C (stereo not shown) [1.0043] | 2.22^[a] | 
50 | CCOC(=O)C(CC(F)(F)F)NC(=O)c1sc(Br)c(Cl)c1C (stereo not shown) [1.0045] | 3.94^[a] | 
51 | CCOC(=O)C1(NC(=O)c2sc(Br)c(Br)c2F)COC1 [1.0046] | 2.77^[a] | 
52 | COC(=O)C1(NC(=O)c2sc(Br)c(Br)c2F)CSC1 [1.0047] | 3.19^[a] | 
53 | CCOC(=O)C(CC(N)=O)NC(=O)c1sc(Br)c(Br)c1F (stereo not shown) [1.0048] | 2.17^[a] | 
54 | CCOC(=O)C(CC(F)(F)F)NC(=O)c1sc(Br)c(Br)c1F (stereo not shown) [1.0050] | 3.88^[a] | 
55 | CCOC(=O)C(Cc1ccccc1)NC(=O)c1sc(Br)c(Br)c1F (stereo not shown) [1.0051] | 4.55^[a] | 
56 | CCOC(=O)CNC(=O)c1cc(Br)c(C#N)s1 [1.0052] | 2.16^[a] | 
57 | CCOC(=O)C1(NC(=O)c2cc(Br)c(C#N)s2)CC1 [1.0053] | 2.45^[a] | 
58 | CCOC(=O)C(NC(=O)c1cc(Br)c(C#N)s1)C(C)C (stereo not shown) [1.0054] | 3.27^[a] | 
59 | CCOC(=O)C(Cc1ccccc1)NC(=O)c1cc(Br)c(C#N)s1 (stereo not shown) [1.0055] | 3.50^[a] | 
60 | CCOC(=O)CNC(=S)c1sc(Cl)c(Cl)c1Br [1.0059] | 4.61^[a] | 
61 | CCOC(=O)C(CC(C)C)NC(=O)c1sc(Br)c(Br)c1F (stereo not shown) [1.0062] | 4.67^[a] | 
62 | CCOC(=O)CNC(=O)c1sc(Cl)c(Br)c1C [1.0063] | 2.98^[a] | 
63 | CCOC(=O)CCNC(=O)c1sc(Cl)c(Br)c1C [1.0064] | 3.15^[a] | 
64 | CCOC(=O)C1(NC(=O)c2sc(Cl)c(Br)c2C)CC1 [1.0065] | 3.17^[a] | 
65 | CCOC(=O)C1(NC(=O)c2sc(Cl)c(Br)c2C)CCC1 [1.0066] | 3.71^[a] | 
66 | CCOC(=O)C(NC(=O)c1sc(Cl)c(Br)c1C)C(C)C (stereo not shown) [1.0067] | 4.30^[a] | 

Row | SMILES | LogP [1] | other results
67 | COC(=O)C(CC(F)F)NC(=O)c1sc(Cl)c(Br)c1C (stereo not shown) [1.0068] | 3.33^[a] | 
68 | CCOC(=O)C(CC(C)C)NC(=O)c1sc(Cl)c(Br)c1C (stereo not shown) [1.0069] | 4.58^[a] | 
69 | CCOC(=O)C(CCSC)NC(=O)c1sc(Cl)c(Br)c1C (stereo not shown) [1.0070] | 3.99^[a] | 
70 | CCOC(=O)C(Cc1ccccc1)NC(=O)c1sc(Cl)c(Br)c1C (stereo not shown) [1.0071] | 4.51^[a] | 
71 | CCOC(=O)CNC(=O)c1sc(Br)c(Cl)c1C [1.0072] | 2.94^[a] | 
72 | CCOC(=O)CCNC(=O)c1sc(Br)c(Cl)c1C [1.0073] | 3.11^[a] | 
73 | CCOC(=O)C1(NC(=O)c2sc(Br)c(Cl)c2C)CC1 [1.0074] | 3.13^[a] | 
74 | CCOC(=O)C1(NC(=O)c2sc(Br)c(Cl)c2C)CCC1 [1.0075] | 3.67^[a] | 
75 | CCOC(=O)C(NC(=O)c1sc(Br)c(Cl)c1C)C(C)C (stereo not shown) [1.0076] | 4.25^[a] | 
76 | COC(=O)C(CC(F)F)NC(=O)c1sc(Br)c(Cl)c1C (stereo not shown) [1.0077] | 3.29^[a] | 
77 | CCOC(=O)C(CC(C)C)NC(=O)c1sc(Br)c(Cl)c1C (stereo not shown) [1.0078] | 4.53^[a] | 
78 | CCOC(=O)C(CCSC)NC(=O)c1sc(Br)c(Cl)c1C (stereo not shown) [1.0079] | 3.94^[a] | 
79 | CCOC(=O)C(Cc1ccccc1)NC(=O)c1sc(Br)c(Cl)c1C (stereo not shown) [1.0080] | 4.46^[a] | 
80 | CCOC(=O)CCNC(=O)c1sc(Br)c(Br)c1I [1.0081] | 3.48^[a] | 
81 | CCOC(=O)C1(NC(=O)c2sc(Br)c(Br)c2I)CCC1 [1.0082] | 4.08^[a] | 
82 | COC(=O)C(CC(F)F)NC(=O)c1sc(Br)c(Br)c1I (stereo not shown) [1.0083] | 3.60^[a] | 
83 | CCOC(=O)CCNC(=O)c1sc(Cl)c(Cl)c1Br [1.0084] | 3.50^[a] | 
84 | CCOC(=O)C1(NC(=O)c2sc(Cl)c(Cl)c2Br)CCC1 [1.0085] | 4.23^[a] | 
85 | COC(=O)C(CC(F)F)NC(=O)c1sc(Cl)c(Cl)c1Br (stereo not shown) [1.0086] | 3.60^[a] | 
86 | CCOC(=O)CNC(=O)c1sc(Br)c(I)c1C [1.0087] | 3.09^[a] | 
87 | CCOC(=O)CCNC(=O)c1sc(Br)c(I)c1C [1.0088] | 3.23^[a] | 
88 | CCOC(=O)C1(NC(=O)c2sc(Br)c(I)c2C)CC1 [1.0089] | 3.25^[a] | 
